Experimental data taken from the supplement of paper PMC10307832.

Columns and labels:
Assay in all cases: relative viability (nuclei count vs DMSO), 5 days (fraction); higher = more cells survive
NCI-H838 = system: NCI-H838
Procedure, shortened: (§1)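 Lung cancer cell lines were seeded in 1536-well plates and dosed by pin tool the next day, with either a single drug or a fixed anchor-drug dose combined with five library-drug doses (not always all listed) spaced in √10 steps. Five days later, one step fixed the cells and stained their nuclei (final 0.05% Triton X-100, 1% formaldehyde, 1 ug/ml Hoechst), and nuclei were counted on 4× images. Relative viability is the nuclei count in treated wells divided by the count in vehicle wells, and each value is the median of duplicate plates.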

COR-L23 = system: COR-L23
Procedure, shortened: as §1

HCC-366 = system: HCC-366
Procedure, shortened: as §1

HCC-15 = system: HCC-15
Procedure, shortened: as §1

NCI-H1993 = system: NCI-H1993
Procedure, shortened: as §1

NCI-H2405 = system: NCI-H2405
Procedure, shortened: as §1

HCC-78 = system: HCC-78
Procedure, shortened: as §1

NCI-H2126 = system: NCI-H2126
Procedure, shortened: as §1

EMC-BAC-2 = system: EMC-BAC-2
Procedure, shortened: as §1

LC-2-ad = system: LC-2-ad
Procedure, shortened: as §1

ABC-1 = system: ABC-1
Procedure, shortened: as §1

NCI-H23 = system: NCI-H23
Procedure, shortened: as §1

NCI-H2023 = system: NCI-H2023
Procedure, shortened: as §1

SK-LU-1 = system: SK-LU-1
Procedure, shortened: as §1

NCI-H2228 = system: NCI-H2228
Procedure, shortened: as §1

ChaGo-K-1 = system: ChaGo-K-1
Procedure, shortened: as §1

HOP-62 = system: HOP-62
Procedure, shortened: as §1

HARA = system: HARA
Procedure, shortened: as §1

Compound `Nc1ccn([C@@H]2O[C@H](CO)[C@@H](O)[C@@H]2O)c(=O)n1` [Cytarabine] + CC(C)C[C@H](NC(=O)[C@H](Cc1ccccc1)NC(=O)c1cnccn1)B(O)O [Bortezomib] (partner 0.002 µM) has a relative viability (NCI-H838; first compound 0.005 µM) of 0.802, a relative viability (NCI-H838; first compound 0.01581 µM) of 0.615 and a relative viability (NCI-H838; first compound 0.05 µM) of 0.506. The relative viability (NCI-H838; first compound 0.1581 µM) was 0.242, the relative viability (NCI-H838; first compound 0.5 µM) was 0.21 and the relative viability (COR-L23; first compound 0.005 µM) was 1.01. It also gave a relative viability (COR-L23; first compound 0.01581 µM) of 0.945, a relative viability (COR-L23; first compound 0.05 µM) of 0.913 and a relative viability (COR-L23; first compound 0.1581 µM) of 0.274. For the same compound, the relative viability (COR-L23; first compound 0.5 µM) was 0.165, the relative viability (HCC-366; first compound 0.005 µM) was 1.16 and the relative viability (HCC-366; first compound 0.01581 µM) was 0.911. The relative viability (HCC-366; first compound 0.05 µM) was 0.479, the relative viability (HCC-366; first compound 0.1581 µM) was 0.0971 and the relative viability (HCC-366; first compound 0.5 µM) was 0.036. For the same compound, the relative viability (HCC-15; first compound 0.005 µM) was 0.795, the relative viability (HCC-15; first compound 0.01581 µM) was 1.03 and the relative viability (HCC-15; first compound 0.05 µM) was 1.16. It also gave a relative viability (HCC-15; first compound 0.1581 µM) of 0.883, a relative viability (HCC-15; first compound 0.5 µM) of 0.668 and a relative viability (NCI-H1993; first compound 0.005 µM) of 1.1. The relative viability (NCI-H1993; first compound 0.01581 µM) was 0.964, the relative viability (NCI-H1993; first compound 0.05 µM) was 1 and the relative viability (NCI-H1993; first compound 0.1581 µM) was 0.768. The relative viability (NCI-H1993; first compound 0.5 µM) was 0.62, the relative viability (NCI-H2405; first compound 0.005 µM) was 0.911 and the relative viability (NCI-H2405; first compound 0.01581 µM) was 0.694. For the same compound, the relative viability (NCI-H2405; first compound 0.05 µM) was 0.662, the relative viability (NCI-H2405; first compound 0.1581 µM) was 0.943 and the relative viability (NCI-H2405; first compound 0.5 µM) was 1.03. It also gave a relative viability (HCC-78; first compound 0.005 µM) of 0.569, a relative viability (HCC-78; first compound 0.01581 µM) of 0.444 and a relative viability (HCC-78; first compound 0.05 µM) of 0.445. The relative viability (HCC-78; first compound 0.1581 µM) was 0.378, the relative viability (HCC-78; first compound 0.5 µM) was 0.252 and the relative viability (NCI-H2126; first compound 0.005 µM) was 1.08. For the same compound, the relative viability (NCI-H2126; first compound 0.01581 µM) was 1.07, the relative viability (NCI-H2126; first compound 0.05 µM) was 1.09 and the relative viability (NCI-H2126; first compound 0.1581 µM) was 0.703. It also gave a relative viability (NCI-H2126; first compound 0.5 µM) of 0.699, a relative viability (EMC-BAC-2; first compound 0.005 µM) of 1.03 and a relative viability (EMC-BAC-2; first compound 0.01581 µM) of 1.09. The relative viability (EMC-BAC-2; first compound 0.05 µM) was 0.807, the relative viability (EMC-BAC-2; first compound 0.1581 µM) was 0.254 and the relative viability (EMC-BAC-2; first compound 0.5 µM) was 0.229. For the same compound, the relative viability (LC-2-ad; first compound 0.005 µM) was 1.01, the relative viability (LC-2-ad; first compound 0.01581 µM) was 0.888 and the relative viability (LC-2-ad; first compound 0.05 µM) was 0.954. The relative viability (LC-2-ad; first compound 0.1581 µM) was 0.434, the relative viability (LC-2-ad; first compound 0.5 µM) was 0.145 and the relative viability (ABC-1; first compound 0.005 µM) was 0.307. It also gave a relative viability (ABC-1; first compound 0.01581 µM) of 0.345, a relative viability (ABC-1; first compound 0.05 µM) of 0.285 and a relative viability (ABC-1; first compound 0.1581 µM) of 0.233. The relative viability (ABC-1; first compound 0.5 µM) was 0.29, the relative viability (NCI-H23; first compound 0.005 µM) was 0.743 and the relative viability (NCI-H23; first compound 0.01581 µM) was 0.656. The relative viability (NCI-H23; first compound 0.05 µM) was 0.559, the relative viability (NCI-H23; first compound 0.1581 µM) was 0.24 and the relative viability (NCI-H23; first compound 0.5 µM) was 0.214. For the same compound, the relative viability (NCI-H2023; first compound 0.005 µM) was 0.469, the relative viability (NCI-H2023; first compound 0.01581 µM) was 0.198 and the relative viability (NCI-H2023; first compound 0.05 µM) was 0.17. For the same compound, the relative viability (NCI-H2023; first compound 0.1581 µM) was 0.0751, the relative viability (NCI-H2023; first compound 0.5 µM) was 0.0603 and the relative viability (SK-LU-1; first compound 0.005 µM) was 0.818. It also gave a relative viability (SK-LU-1; first compound 0.01581 µM) of 0.69, a relative viability (SK-LU-1; first compound 0.05 µM) of 0.558 and a relative viability (SK-LU-1; first compound 0.1581 µM) of 0.393. The relative viability (SK-LU-1; first compound 0.5 µM) was 0.296, the relative viability (NCI-H2228; first compound 0.005 µM) was 0.791 and the relative viability (NCI-H2228; first compound 0.01581 µM) was 0.441. It also gave a relative viability (NCI-H2228; first compound 0.05 µM) of 0.437, a relative viability (NCI-H2228; first compound 0.1581 µM) of 0.197 and a relative viability (NCI-H2228; first compound 0.5 µM) of 0.156. It also gave a relative viability (ChaGo-K-1; first compound 0.005 µM) of 0.707, a relative viability (ChaGo-K-1; first compound 0.01581 µM) of 0.559 and a relative viability (ChaGo-K-1; first compound 0.05 µM) of 0.443. It also gave a relative viability (ChaGo-K-1; first compound 0.1581 µM) of 0.437, a relative viability (ChaGo-K-1; first compound 0.5 µM) of 0.499 and a relative viability (HOP-62; first compound 0.005 µM) of 0.58. For the same compound, the relative viability (HOP-62; first compound 0.01581 µM) was 0.291, the relative viability (HOP-62; first compound 0.05 µM) was 0.208 and the relative viability (HOP-62; first compound 0.1581 µM) was 0.174. For the same compound, the relative viability (HOP-62; first compound 0.5 µM) was 0.0493, the relative viability (HARA; first compound 0.005 µM) was 0.725 and the relative viability (HARA; first compound 0.01581 µM) was 0.642. The relative viability (HARA; first compound 0.05 µM) was 0.652, the relative viability (HARA; first compound 0.1581 µM) was 0.179 and the relative viability (HARA; first compound 0.5 µM) was 0.139.
